# Biological target: T1, USP28 (Homo sapiens, UniProt Q96RU2)
# T1 sequence (Q96RU2 1-1077): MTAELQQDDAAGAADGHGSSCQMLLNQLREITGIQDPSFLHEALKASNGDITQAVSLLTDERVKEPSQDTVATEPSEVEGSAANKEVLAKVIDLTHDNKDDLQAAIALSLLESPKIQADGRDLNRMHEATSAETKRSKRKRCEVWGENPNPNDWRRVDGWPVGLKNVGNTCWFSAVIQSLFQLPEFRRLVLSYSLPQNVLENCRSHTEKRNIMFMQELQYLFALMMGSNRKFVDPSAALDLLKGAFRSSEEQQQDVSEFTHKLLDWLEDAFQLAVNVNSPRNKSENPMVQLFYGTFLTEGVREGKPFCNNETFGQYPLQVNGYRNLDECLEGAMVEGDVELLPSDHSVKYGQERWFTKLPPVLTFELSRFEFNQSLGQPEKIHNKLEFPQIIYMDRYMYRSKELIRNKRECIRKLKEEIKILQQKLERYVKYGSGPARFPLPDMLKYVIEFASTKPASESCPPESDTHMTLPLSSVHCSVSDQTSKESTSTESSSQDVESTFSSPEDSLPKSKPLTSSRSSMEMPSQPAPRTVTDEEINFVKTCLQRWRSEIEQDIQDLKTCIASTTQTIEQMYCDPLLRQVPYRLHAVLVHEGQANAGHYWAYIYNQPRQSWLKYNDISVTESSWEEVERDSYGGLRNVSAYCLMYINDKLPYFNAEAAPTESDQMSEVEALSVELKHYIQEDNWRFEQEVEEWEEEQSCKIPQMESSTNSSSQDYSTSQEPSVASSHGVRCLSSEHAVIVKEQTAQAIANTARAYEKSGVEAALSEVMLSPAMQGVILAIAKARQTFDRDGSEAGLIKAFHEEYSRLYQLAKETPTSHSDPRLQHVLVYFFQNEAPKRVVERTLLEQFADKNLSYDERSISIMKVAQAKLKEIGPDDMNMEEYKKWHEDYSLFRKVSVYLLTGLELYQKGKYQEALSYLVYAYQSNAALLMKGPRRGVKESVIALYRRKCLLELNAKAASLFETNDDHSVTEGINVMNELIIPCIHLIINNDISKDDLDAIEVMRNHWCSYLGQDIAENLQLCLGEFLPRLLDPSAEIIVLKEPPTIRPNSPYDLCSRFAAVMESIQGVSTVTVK
# Assay: Ubiquitin-Rhodamine110 assay
# Type: biochemical
# Details: USP28 at 1 nM, 30 minutes pre-incubation at room temperature, Ubiquitin-Rho110 125 nM
# Method: USP28 (at 1 nM) was pre-incubated with different concentrations of inhibitors or DMSO as a control in 50 mM Tris pH 8, 50 mM NaCl, 0.002% Tween-20, 5 mM DTT. Compounds and protein were incubated for 30 minutes at room temperature prior to the addition of Ubiquitin-Rho110 (Boston Biochem) substrate for a final concentration of 125 nM. The initial rate of the reaction was measured by collecting fluorescence data at one-minute interval over 30-minute period using a Clariostar® fluorescence plate reader at excitation and emission wavelength of 485 nm and 535 nm, respectively. The calculated initial rate values were plotted against inhibitor concentrations to determine IC50s. All the experimental data were plotted using GraphPad Prism®.
row,IC50 [µM],SMILES
1,1 to 10,Clc1ccc(Cc2nc(-c3ccc(Cl)nc3)no2)cc1 [Compound 3]
2,1 to 10,O=c1ccc(-c2noc(Cc3ccc(Cl)cc3)n2)c[nH]1 [Compound 4]
3,< 1,Clc1ccc(-c2noc(Cc3ccc(Cl)c(Cl)c3)n2)cn1 [Compound 5]
4,< 1,Clc1ccc(-c2noc(Cc3ccccc3)n2)cn1 [Compound 6]
5,< 1,O=c1ccc(-c2noc(Cc3ccc(Cl)c(Cl)c3)n2)c[nH]1 [Compound 8]
6,> 100,CN(C)c1ccc(-c2noc(Cc3ccc(Cl)c(Cl)c3)n2)cn1 [Compound 13]
7,10 to 100,O=C(O)c1cccc(-c2noc(Cc3ccc(Cl)c(Cl)c3)n2)c1 [Compound 18]
8,< 1,Nc1ccc(-c2noc(Cc3ccc(Cl)c(Cl)c3)n2)cn1 [Compound 19]
9,> 100,CCC(c1ccccc1)c1nc(-c2ccc(Cl)nc2)no1 (centres unmarked) [Compound 20]
10,< 1,Clc1ccc(-c2noc(Cc3ccc4ccccc4c3)n2)cn1 [Compound 22]
11,1 to 10,Clc1ccc(-c2noc(Cc3cccc4ccccc34)n2)cn1 [Compound 23]
12,< 1,O=c1ccc(-c2noc(Cc3cccc(Cl)c3)n2)c[nH]1 [Compound 28]
13,1 to 10,Clc1cccc(Cc2nc(-c3ccc(Cl)nc3)no2)c1 [Compound 29]
14,10 to 100,Nc1ccc(Cc2nc(-c3ccc(Cl)nc3)no2)cc1 [Compound 30]
15,1 to 10,O=[N+]([O-])c1cc(Cc2nc(-c3ccc(Cl)nc3)no2)ccc1Cl [Compound 31]
16,1 to 10,O=C(Nc1ccc(-c2noc(Cc3ccc(Cl)c(Cl)c3)n2)cn1)[C@H]1CCNC1 [Compound 32]

# Further lines, the molecule ahead of its results:
row,SMILES,IC50 [µM]
1,c1ccc2cc(Cc3nc(-c4ccncc4)no3)ccc2c1 [Compound 1],1 to 10
2,c1ccc(-c2nc(-c3cccnc3)no2)nc1 [Compound 2],> 100
3,O=c1ccc(-c2noc(Cc3ccccc3)n2)c[nH]1 [Compound 7],1 to 10
4,O=c1ccc(-c2nc(Cc3ccc(Cl)c(Cl)c3)no2)c[nH]1 [Compound 9],1 to 10
5,O=c1ccc(-c2noc(Cc3ccc(Cl)c(Cl)c3)n2)cn1Cc1ccccc1 [Compound 10],1 to 10
6,O=c1ccc(-c2nc(-c3ccc(OC(F)(F)F)cc3)no2)cn1Cc1ccnc(Cl)c1 [Compound 11],> 100
7,CN1CCN(c2cc(Cn3cc(-c4nc(-c5ccc(OC(F)(F)F)cc5)no4)ccc3=O)ccn2)CC1 [Compound 12],> 100
8,COC(=O)c1ccc(Cc2noc(Cc3ccc(Cl)c(Cl)c3)n2)cc1 [Compound 14],> 100
9,O=C(O)c1ccc(Cc2noc(Cc3ccc(Cl)c(Cl)c3)n2)cc1 [Compound 15],10 to 100
10,O=c1ccc(-c2noc(Cc3cc(F)cc(F)c3)n2)c[nH]1 [Compound 16],1 to 10
11,N[C@@H](Cc1ccccc1)c1nc(-c2ccc(=O)[nH]c2)no1 [Compound 17],> 100
12,CCC(c1ccccc1)c1nc(-c2ccc(=O)[nH]c2)no1 (centres unmarked) [Compound 21],> 100

# Biological target: T1, USP28
# Assay: Competitive activity-based protein profiling (target engagement, Ub-VME probe, Western blot)
# Type: binding
# Details: K562 cells lysed, treated with compound for 1 h followed by Ub-VME; Western blot (FIG. 3)
# Method: K562 cells were lysed and treated with indicated concentrations of compound 8 for 1 h followed by incubation with Ub-VME. Ub-VME covalently modifies USP28, resulting in higher MW band observed by Western blot.
# Cells were pelleted, washed with PBS buffer, lysed on ice (20 mM Tris pH 8, 150 mM NaCl, 1% NP-40, 10% glycerol, 1 mM TCEP, phosphatase inhibitor cocktails (Sigma P5726 and Calbiochem 524624), and protease inhibitors (pepstatin, leupeptin, PMSF, and aprotinin), and clarified by centrifugation. Protein content was quantified by BCA and diluted to 2 mg/mL in lysis buffer. Compounds were added at desired concentrations and incubated at room temperature for 30 minutes. Samples were then supplemented with 2 uM HA-Ub-VS and incubated at room temperature with shaking for 15 minutes. Reactions were quenched with 4×LDS sample buffer (Thermo Fisher B0007) supplemented with 10% BME, vortexed vigorously, and heated to 95° C. for 5 minutes. Samples were resolved by SDS-PAGE and analyzed by Western blot with the indicated antibodies.
row,SMILES,labeling of USP28 by covalent Ub-VME probe (target engagement)
1,O=c1ccc(-c2noc(Cc3ccc(Cl)c(Cl)c3)n2)c[nH]1 [Compound 8],prevents labeling of USP28 by the covalent Ub-VME probe
